Measurements: patent US20090252013A1, “HYDRAZIDE CHELATE COMPLEX COMPOUND, OPTICAL RECORDING MEDIUM USING THE COMPOUND AND RECORDING METHOD THEREOF” (Mitsubishi Chemical Corporation, priority 2006, published 2009)

Key:
[1] = Solubility test in coating solvent (2,2,3,3-tetrafluoropropanol); type: physicochemical; conditions: 20° C., result in words
Protocol: The dissolution is determined by whether or not residual crystals of the compound remain in the solvent when the compound and TFP are mixed with a predetermined concentration.
Then, the solution was dropped to filter paper (“No. 5C” quantitative filter paper manufactured by Toyo Roshi Kaisha), and dried at room temperature for 24 hours. It was visually observed whether or not crystal residues of undissolved components were present on the filter paper.

[2] = Light fastness test (xenon lamp) of dye recording layer; type: physicochemical; conditions: xenon lamp 0.55 W/m^2, 40 hours, 58° C., humidity 50%, absorbance at absorption maximum
Protocol: First, a solution containing a hydrazide chelate complex compound is applied over a substrate such that the film thickness after drying is about 50 nm, followed by drying, thus obtaining a layer containing the hydrazide chelate complex compound. The layer containing the resulting dye is irradiated with a xenon lamp (intensity 0.55 W/m^2) for a predetermined period of time under conditions at a temperature of 58° C. and a humidity of 50%. The absorbances at the absorption maximum wavelength before and after the irradiation are compared to obtain the dye residual ratio.
The resulting compound (A-6) was dissolved in 2,2,3,3-tetrafluoropropanol at a concentration of 1.0% by weight, and minute foreign particles were removed by filtration. Then, the resulting solution was dropped to an injection-molded polycarbonate substrate with a diameter of 120 mm and a thickness of 1.2 mm and coating was performed by spin coating (4,900 rpm), followed by drying at 80° C. for 30 minutes. […]
Under the conditions of temperature 58° C. and humidity 50%, a recording layer was irradiated with a xenon lamp at an irradiation intensity of 0.55 W/m^2 for 40 hours. Then, the dye residual ratio in the recording layer was determined on the basis of the absorbances before and after irradiation at the absorption maximum wavelength.

SMILES | solubility in a coating solvent at a concentration of 0.7% by weight [1] | solubility in a coating solvent at a concentration of 1.0% by weight [1] | dye residual ratio (after 40-hour light fastness test) [2] [%]
CN1C(=CC=[N+]2N=C(c3ccccc3)[O][Cu-2]23[O]C(c2ccccc2)=N[N+]3=CC=C2N(C)c3ccccc3C2(C)C)C(C)(C)c2ccccc21 (centres unmarked) [Compound A-2] | completely dissolved | the amount of insolubles was slight | 
CCOC(=O)CC1=N[N+](=CC=C2N(C)c3ccccc3C2(C)C)[Co-2]2([O]1)[O]C(CC(=O)OCC)=N[N+]2=CC=C1N(C)c2ccccc2C1(C)C (centres unmarked) [Compound A-6] | completely dissolved | completely dissolved | 90
CCOC(=O)CC1=N[N+](=CC=C2N(CC)c3ccccc3C2(C)Cc2ccccc2)[Co-2]2([O]1)[O]C(CC(=O)OCC)=N[N+]2=CC=C1N(CC)c2ccccc2C1(C)Cc1ccccc1 (centres unmarked) [Compound A-11] | completely dissolved | completely dissolved | 91
CCN1C(=CC=[N+]2N=C(c3ccccc3)[O][Co-2]23[O]C(c2ccccc2)=N[N+]3=CC=C2N(CC)c3ccc(OC)cc3C2(C)C)C(C)(C)c2cc(OC)ccc21 (centres unmarked) [Compound A-86] | completely dissolved | completely dissolved | 
CCN1C(=CC=[N+]2N=C(c3cccc(OC)c3)[O][Co-2]23[O]C(c2cccc(OC)c2)=N[N+]3=CC=C2N(CC)c3ccc(OC)cc3C2(C)C)C(C)(C)c2cc(OC)ccc21 (centres unmarked) [Compound A-87] | completely dissolved | completely dissolved | 
CCOc1ccccc1C1=N[N+](=CC=C2N(CC)c3c(ccc4ccccc34)C2(C)C)[Co-2]2([O]1)[O]C(c1ccccc1OCC)=N[N+]2=CC=C1N(CC)c2c(ccc3ccccc23)C1(C)C (centres unmarked) [Compound A-88] | completely dissolved | completely dissolved | 
CCN1C(=CC=[N+]2N=C(c3ccccc3OC)[O][Co-2]23[O]C(c2ccccc2OC)=N[N+]3=CC=C2N(CC)c3ccc(OC)cc3C2(C)Cc2ccccc2)C(C)(Cc2ccccc2)c2cc(OC)ccc21 (centres unmarked) [Compound A-150] | completely dissolved | completely dissolved | 
CCN1C(=CC=[N+]2N=C(c3ccc(C(=O)OC)cc3)[O][Co-2]23[O]C(c2ccc(C(=O)OC)cc2)=N[N+]3=CC=C2N(CC)c3ccc(OC)cc3C2(C)Cc2cccc(F)c2)C(C)(Cc2cccc(F)c2)c2cc(OC)ccc21 (centres unmarked) [Compound A-152] | completely dissolved | completely dissolved | 
CCN(CC)C(=O)c1ccc(C2=N[N+](=CC=C3N(CC)c4ccc(OC)cc4C3(C)Cc3ccccc3)[Co-2]3([O]2)[O]C(c2ccc(C(=O)N(CC)CC)cc2)=N[N+]3=CC=C2N(CC)c3ccc(OC)cc3C2(C)Cc2ccccc2)cc1 (centres unmarked) [Compound A-159] | completely dissolved | completely dissolved | 
CCN1C(=CC=[N+]2N=C(c3ccc(C(=O)OC)cc3)[O][Co-2]23[O]C(c2ccc(C(=O)OC)cc2)=N[N+]3=CC=C2N(CC)c3ccc(OC)cc3C2(C)Cc2ccccc2)C(C)(Cc2ccccc2)c2cc(OC)ccc21 (centres unmarked) [Compound A-186] | completely dissolved | completely dissolved | 
CCCN(CCC)S(=O)(=O)c1ccc(C2=N[N+](=CC=C3N(CC)c4ccc(OC)cc4C3(C)Cc3ccccc3)[Co-2]3([O]2)[O]C(c2ccc(S(=O)(=O)N(CCC)CCC)cc2)=N[N+]3=CC=C2N(CC)c3ccc(OC)cc3C2(C)Cc2ccccc2)cc1 (centres unmarked) [Compound A-211] | completely dissolved | completely dissolved | 
CCN1C(=CC=[N+]2N=C(c3cccc(OCCOC)c3)[O][Co-2]23[O]C(c2cccc(OCCOC)c2)=N[N+]3=CC=C2N(CC)c3ccc(OC)cc3C2(C)Cc2ccccc2)C(C)(Cc2ccccc2)c2cc(OC)ccc21 (centres unmarked) [Compound A-212] | completely dissolved | completely dissolved | 
CN(C)c1ccc(C2=N/[N+](=C/c3ccccn3)[Co-2]3([O]2)[O]C(c2ccc(N(C)C)cc2)=N/[N+]3=C/c2ccccn2)cc1 [Compound B-4, reference compound] | the amount of insolubles was large | the amount of insolubles was large | 
[CH2-][N+]1=C\c2n(C)c3ccccc3[n+]2[Co-3]23([O]C(c4ccc(N(C)C)cc4)=N[N+]2=Cc2n(C)c4ccccc4[n+]23)[O]/C(c2ccc(N(C)C)cc2)=N\1 [Compound B-5, reference compound] | the amount of insolubles was large | the amount of insolubles was large | 
[CH2-][N+](=C\C=C\c1ccc(N(CC)CC)cc1)/N=C(\[O][Co-]1[O]C(c2c(C)cc(C)cc2C)=N/[N+]1=C/C=C/c1ccc(N(CC)CC)cc1)c1c(C)cc(C)cc1C [Compound B-6, reference compound] | the amount of insolubles was large | the amount of insolubles was large | 
